The target of data set [1] is T1, protein kinases (panel of Table 4) (Homo sapiens, UniProt Q16539).
T1 construct: other: kinase SAPK2a; ATP 100 μM
Kind of data set: Kinase selectivity profile, kinase inhibition IC50 (Table 4), ATP 100 μM. The format is biochemical. Conditions: kinase SAPK2a.

Data set [2] concerns the target protein kinases (panel of Table 4) (Homo sapiens, UniProt P12931). The description is as above. Format: biochemical. The settings on record: kinase Src.
A further data set addresses ERK8 (Homo sapiens, UniProt Q8TD08). Kind of data set: Kinase selectivity profile, ERK8. The format is biochemical. Conditions: 5 μM test compound, compared to control; ATP 5 μM. As for the experimental part: (§1) The kinase selectivity profiles of selected example compounds were determined, essentially as described (Bain, J.; McLauchlan, H.; Elliott, M.; Cohen, P. Biochemical Journal, 2003, 371, 199.); the results are shown in Tables 3 & 4. For the assays shown in Table 3, the kinases were assayed at the following ATP concentrations: SAPK4, PKBΔph, GSK3b, SAPK3, CK2, MKK1, PIM2, IKKB, ERK8, and PRK2 at 5 μM; JNK, PRAK, ROCK-II, SAPK2b, CDK2, CHK1, MSK1, CSK, P70S6K, PKA, CK1, MAPKAP-K2, SGK, PKCa, PDK1, NEK 7, and MAPKAP-K3 at 20 μM; SAPK2a, LCK, AMPK, MAPK2, DYRK1a, MAPKAP-K1a, NEK-6, NEK2a, PBK, CAMK-1, SRPK-1, JNK3, MNK2, RSK2, MNK1, PKBB, and SmMLCK at 50 μM. For the assays in Table 4 the ATP concentration was 100 μM throughout.

The target of another data set is MKK1 (Homo sapiens, UniProt Q02750). As to the kind of experiment: Kinase selectivity profile, MKK1. The settings on record: 5 μM test compound, compared to control; ATP 5 μM. The format is biochemical. As for the experimental part:
as §1

For a further data set, the target named is MAPKAP-K3 (Homo sapiens, UniProt Q16644). As to the kind of experiment: Kinase selectivity profile, MAPKAP-K3. The format is biochemical. The settings on record: 5 μM test compound, compared to control; ATP 20 μM. As for the experimental part:
as §1

In the next data set the target is CAMK-1 (Homo sapiens, UniProt Q14012). As to the kind of experiment: Kinase selectivity profile, CAMK-1. Format: biochemical. The settings on record: 5 μM test compound, compared to control; ATP 50 μM. As for the experimental part: as §1
A further data set deals with PHK. Kind of data set: Kinase selectivity profile, PHK. The format is biochemical. Conditions: 5 μM test compound, compared to control. As for the experimental part:
as §1

For another data set, the target named is MAPKAP-K1b (Homo sapiens, UniProt P51812). As to the kind of experiment: Kinase selectivity profile, MAPKAP-K1b. The format is biochemical. Conditions: 5 μM test compound, compared to control. On the procedure: as §1
A further data set relates to CK2. As to the kind of experiment: Kinase selectivity profile, CK2. The format is biochemical. The settings on record: 5 μM test compound, compared to control; ATP 5 μM. As for the experimental part: as §1
A further data set has as its target MSK1 (Homo sapiens, UniProt O75582). Kind of data set: Kinase selectivity profile, MSK1. Format: biochemical. Conditions: 5 μM test compound, compared to control; ATP 20 μM. On the procedure: as §1
The target of a further data set is CSK (Homo sapiens, UniProt P41240). Kind of data set: Kinase selectivity profile, CSK. Format: biochemical. The settings on record: 5 μM test compound, compared to control; ATP 20 μM. On the procedure:
as §1

The next data set addresses PKCa (Homo sapiens, UniProt P17252). Kind of data set: Kinase selectivity profile, PKCa. Format: biochemical. The settings on record: 5 μM test compound, compared to control; ATP 20 μM. On the procedure:
as §1

The target of a further data set is CDK2-cyclin A (Homo sapiens, UniProt P24941). Kind of data set: Kinase selectivity profile, CDK2/cyclin A. Conditions: 5 μM test compound, compared to control; ATP 20 μM. The format is biochemical. On the procedure: as §1
A further data set deals with NEK2a (Homo sapiens, UniProt P51955). As to the kind of experiment: Kinase selectivity profile, NEK2a. Format: biochemical. Conditions: 5 μM test compound, compared to control; ATP 50 μM. As for the experimental part:
as §1

Another data set addresses SAPK3/p38g (Homo sapiens, UniProt P53778). As to the kind of experiment: Kinase selectivity profile, SAPK3/p38g. The format is biochemical. The settings on record: 5 μM test compound, compared to control; ATP 5 μM. On the procedure: as §1
Another data set deals with MNK1 (Homo sapiens, UniProt Q9BUB5). As to the kind of experiment: Kinase selectivity profile, MNK1. The settings on record: 5 μM test compound, compared to control; ATP 50 μM. The format is biochemical. On the procedure:
as §1

The next data set addresses SAPK2b/p38β2 (Homo sapiens, UniProt Q15759). Kind of data set: Kinase selectivity profile, SAPK2b/p38β2. Format: biochemical. The settings on record: 5 μM test compound, compared to control; ATP 20 μM. On the procedure:
as §1

The subject of another data set is CK1. Kind of data set: Kinase selectivity profile, CK1. The settings on record: 5 μM test compound, compared to control; ATP 20 μM. The format is biochemical. As for the experimental part: as §1
A further data set has as its target JNK3 (Homo sapiens, UniProt P53779). Kind of data set: Kinase selectivity profile, JNK3. Format: biochemical. Conditions: 5 μM test compound, compared to control; ATP 50 μM. On the procedure: as §1
For another data set, the target named is SGK (Homo sapiens, UniProt O00141). As to the kind of experiment: Kinase selectivity profile, SGK. The format is biochemical. The settings on record: 5 μM test compound, compared to control; ATP 20 μM. As for the experimental part: as §1
A further data set concerns the target NEK6 (Homo sapiens, UniProt Q9HC98). As to the kind of experiment: Kinase selectivity profile, NEK6. Format: biochemical. The settings on record: 5 μM test compound, compared to control; ATP 50 μM. On the procedure:
as §1

A further data set deals with CHK1 (Homo sapiens, UniProt O14757). Kind of data set: Kinase selectivity profile, CHK1. Format: biochemical. The settings on record: 5 μM test compound, compared to control; ATP 20 μM. As for the experimental part: as §1
The next data set deals with PDK1 (Homo sapiens, UniProt O15530). As to the kind of experiment: Kinase selectivity profile, PDK1. The settings on record: 5 μM test compound, compared to control; ATP 20 μM. Format: biochemical. On the procedure:
as §1

In a further data set the target is p70 S6K (Homo sapiens, UniProt P23443). As to the kind of experiment: Kinase selectivity profile, p70 S6K. The format is biochemical. Conditions: 5 μM test compound, compared to control; ATP 20 μM. As for the experimental part:
as §1

SAPK3/p38g, sequence (P53778 whole entry): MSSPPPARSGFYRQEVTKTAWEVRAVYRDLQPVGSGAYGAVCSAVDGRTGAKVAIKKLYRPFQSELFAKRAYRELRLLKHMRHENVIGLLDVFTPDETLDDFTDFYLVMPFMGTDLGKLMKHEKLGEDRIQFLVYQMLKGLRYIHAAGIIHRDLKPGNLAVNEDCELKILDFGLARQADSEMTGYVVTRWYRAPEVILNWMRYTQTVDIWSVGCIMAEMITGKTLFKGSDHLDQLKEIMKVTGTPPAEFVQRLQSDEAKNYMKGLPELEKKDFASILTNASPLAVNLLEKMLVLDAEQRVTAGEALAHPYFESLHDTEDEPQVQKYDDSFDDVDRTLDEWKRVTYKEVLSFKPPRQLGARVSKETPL
CAMK-1, sequence (Q14012 whole entry, species assumed): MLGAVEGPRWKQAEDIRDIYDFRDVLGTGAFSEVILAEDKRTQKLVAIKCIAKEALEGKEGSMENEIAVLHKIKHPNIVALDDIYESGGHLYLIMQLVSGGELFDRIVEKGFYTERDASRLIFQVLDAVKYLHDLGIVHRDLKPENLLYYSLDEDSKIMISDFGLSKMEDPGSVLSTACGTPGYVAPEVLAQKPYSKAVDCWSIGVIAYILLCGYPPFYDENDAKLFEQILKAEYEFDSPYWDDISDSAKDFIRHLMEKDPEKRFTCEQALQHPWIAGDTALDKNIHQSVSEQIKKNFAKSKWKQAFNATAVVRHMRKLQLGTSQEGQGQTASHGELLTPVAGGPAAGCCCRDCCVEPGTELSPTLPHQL
PDK1, sequence (O15530 whole entry): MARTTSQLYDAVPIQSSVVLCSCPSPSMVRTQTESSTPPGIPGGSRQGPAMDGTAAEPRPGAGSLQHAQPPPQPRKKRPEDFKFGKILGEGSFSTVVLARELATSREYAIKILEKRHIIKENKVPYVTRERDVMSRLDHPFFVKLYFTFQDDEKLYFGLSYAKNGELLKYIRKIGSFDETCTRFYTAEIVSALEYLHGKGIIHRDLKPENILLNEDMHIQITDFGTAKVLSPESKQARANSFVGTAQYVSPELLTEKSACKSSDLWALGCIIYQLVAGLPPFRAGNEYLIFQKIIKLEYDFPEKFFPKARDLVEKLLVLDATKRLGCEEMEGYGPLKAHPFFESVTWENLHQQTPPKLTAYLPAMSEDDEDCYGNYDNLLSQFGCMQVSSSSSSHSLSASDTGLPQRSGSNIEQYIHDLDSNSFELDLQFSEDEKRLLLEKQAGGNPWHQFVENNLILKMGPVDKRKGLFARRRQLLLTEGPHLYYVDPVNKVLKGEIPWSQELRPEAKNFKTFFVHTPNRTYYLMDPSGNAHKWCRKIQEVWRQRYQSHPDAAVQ
MAPKAP-K1b, sequence (P51812 whole entry, species assumed): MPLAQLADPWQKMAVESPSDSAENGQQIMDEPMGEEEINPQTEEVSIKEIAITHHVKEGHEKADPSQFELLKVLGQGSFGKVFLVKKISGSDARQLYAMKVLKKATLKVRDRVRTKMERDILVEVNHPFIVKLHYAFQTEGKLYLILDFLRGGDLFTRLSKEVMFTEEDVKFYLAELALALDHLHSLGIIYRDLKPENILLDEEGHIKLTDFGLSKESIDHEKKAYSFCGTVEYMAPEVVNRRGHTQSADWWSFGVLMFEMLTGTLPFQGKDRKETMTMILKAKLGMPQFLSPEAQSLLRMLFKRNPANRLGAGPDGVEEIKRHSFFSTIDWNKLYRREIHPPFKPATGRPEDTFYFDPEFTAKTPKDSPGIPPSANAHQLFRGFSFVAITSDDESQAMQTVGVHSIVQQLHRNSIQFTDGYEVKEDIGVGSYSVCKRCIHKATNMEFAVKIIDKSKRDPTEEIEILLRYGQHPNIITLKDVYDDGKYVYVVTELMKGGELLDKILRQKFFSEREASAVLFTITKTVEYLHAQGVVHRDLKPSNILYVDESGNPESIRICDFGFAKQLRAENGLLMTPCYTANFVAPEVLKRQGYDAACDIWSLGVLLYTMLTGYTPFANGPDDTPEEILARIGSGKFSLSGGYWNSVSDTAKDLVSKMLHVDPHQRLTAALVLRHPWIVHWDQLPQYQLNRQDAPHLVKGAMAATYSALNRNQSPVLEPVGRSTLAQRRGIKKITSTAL
ERK8, sequence (Q8TD08 whole entry, species assumed): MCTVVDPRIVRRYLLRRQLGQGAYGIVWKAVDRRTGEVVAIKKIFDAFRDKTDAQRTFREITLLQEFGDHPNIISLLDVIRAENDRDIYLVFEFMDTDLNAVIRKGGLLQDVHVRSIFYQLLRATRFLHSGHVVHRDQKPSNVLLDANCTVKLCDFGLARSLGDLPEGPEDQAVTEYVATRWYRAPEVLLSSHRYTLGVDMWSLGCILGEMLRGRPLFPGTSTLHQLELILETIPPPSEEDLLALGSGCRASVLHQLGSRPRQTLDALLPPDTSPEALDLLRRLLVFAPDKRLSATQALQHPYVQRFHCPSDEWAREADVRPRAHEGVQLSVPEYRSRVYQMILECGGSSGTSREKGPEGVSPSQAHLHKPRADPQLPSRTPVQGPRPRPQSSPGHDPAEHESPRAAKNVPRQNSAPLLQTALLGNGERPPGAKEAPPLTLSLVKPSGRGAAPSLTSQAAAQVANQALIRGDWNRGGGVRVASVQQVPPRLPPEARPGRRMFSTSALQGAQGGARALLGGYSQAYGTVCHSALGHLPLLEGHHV
CSK, sequence (P41240 whole entry, species assumed): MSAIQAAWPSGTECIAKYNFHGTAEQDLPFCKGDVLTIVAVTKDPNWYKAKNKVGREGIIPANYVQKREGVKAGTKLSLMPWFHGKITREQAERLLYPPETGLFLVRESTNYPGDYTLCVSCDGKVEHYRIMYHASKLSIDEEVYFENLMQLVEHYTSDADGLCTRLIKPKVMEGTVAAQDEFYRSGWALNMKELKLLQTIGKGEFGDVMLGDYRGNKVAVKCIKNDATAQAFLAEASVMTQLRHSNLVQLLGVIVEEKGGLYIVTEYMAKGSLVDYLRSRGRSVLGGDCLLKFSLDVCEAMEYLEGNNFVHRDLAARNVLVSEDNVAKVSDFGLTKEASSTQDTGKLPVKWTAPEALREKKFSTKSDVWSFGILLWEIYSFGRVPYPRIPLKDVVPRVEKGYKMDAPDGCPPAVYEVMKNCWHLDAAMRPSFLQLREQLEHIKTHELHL
SAPK2b/p38β2, sequence (Q15759 whole entry): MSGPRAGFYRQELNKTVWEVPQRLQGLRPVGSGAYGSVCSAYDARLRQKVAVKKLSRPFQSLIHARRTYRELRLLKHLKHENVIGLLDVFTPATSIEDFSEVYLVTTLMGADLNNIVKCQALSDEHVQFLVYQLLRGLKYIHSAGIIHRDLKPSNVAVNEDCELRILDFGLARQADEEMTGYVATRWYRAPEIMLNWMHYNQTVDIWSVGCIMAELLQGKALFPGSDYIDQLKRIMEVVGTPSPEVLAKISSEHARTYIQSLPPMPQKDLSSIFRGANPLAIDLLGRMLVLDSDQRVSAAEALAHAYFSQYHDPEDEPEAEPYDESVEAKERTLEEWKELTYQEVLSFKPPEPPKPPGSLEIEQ
p70 S6K, sequence (P23443 whole entry): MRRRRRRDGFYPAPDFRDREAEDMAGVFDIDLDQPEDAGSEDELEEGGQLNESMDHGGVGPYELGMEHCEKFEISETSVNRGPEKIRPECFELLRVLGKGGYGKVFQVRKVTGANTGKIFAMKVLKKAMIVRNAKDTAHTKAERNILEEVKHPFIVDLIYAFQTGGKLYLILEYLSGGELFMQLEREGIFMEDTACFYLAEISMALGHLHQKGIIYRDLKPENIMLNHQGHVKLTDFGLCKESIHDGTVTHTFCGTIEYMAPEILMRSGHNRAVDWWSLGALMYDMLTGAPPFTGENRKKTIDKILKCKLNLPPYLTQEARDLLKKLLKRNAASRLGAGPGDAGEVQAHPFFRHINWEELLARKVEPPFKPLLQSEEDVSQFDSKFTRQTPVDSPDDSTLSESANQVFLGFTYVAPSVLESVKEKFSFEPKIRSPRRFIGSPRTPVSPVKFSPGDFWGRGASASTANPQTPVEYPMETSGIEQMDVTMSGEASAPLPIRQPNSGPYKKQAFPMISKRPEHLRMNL
MSK1, sequence (O75582 whole entry, species assumed): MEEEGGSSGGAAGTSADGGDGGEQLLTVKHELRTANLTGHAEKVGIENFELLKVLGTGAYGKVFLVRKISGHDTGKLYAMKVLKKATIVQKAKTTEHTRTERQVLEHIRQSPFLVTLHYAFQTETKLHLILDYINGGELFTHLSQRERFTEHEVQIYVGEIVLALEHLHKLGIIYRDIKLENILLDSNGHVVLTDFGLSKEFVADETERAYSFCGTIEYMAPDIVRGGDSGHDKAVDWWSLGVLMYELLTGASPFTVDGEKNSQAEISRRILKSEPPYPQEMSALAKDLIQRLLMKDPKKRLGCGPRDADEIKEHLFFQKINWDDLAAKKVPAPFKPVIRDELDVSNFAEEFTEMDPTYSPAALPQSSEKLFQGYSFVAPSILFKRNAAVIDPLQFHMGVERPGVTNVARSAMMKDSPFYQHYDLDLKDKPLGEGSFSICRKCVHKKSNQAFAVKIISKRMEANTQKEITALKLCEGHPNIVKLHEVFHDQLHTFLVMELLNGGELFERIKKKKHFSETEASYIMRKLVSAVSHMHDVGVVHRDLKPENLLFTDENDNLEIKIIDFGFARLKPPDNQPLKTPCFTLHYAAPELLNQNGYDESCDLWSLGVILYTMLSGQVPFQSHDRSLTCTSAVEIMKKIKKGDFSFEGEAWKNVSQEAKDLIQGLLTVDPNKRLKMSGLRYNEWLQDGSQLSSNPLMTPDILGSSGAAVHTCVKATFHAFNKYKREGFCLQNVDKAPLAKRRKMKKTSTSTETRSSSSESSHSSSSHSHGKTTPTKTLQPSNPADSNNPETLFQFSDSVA

Broadly, the IC50 is the point on the concentration scale where inhibition reaches its midpoint. A lower IC50 goes with greater potency in that assay. Consider `CNc1nc(C)c(-c2ccnc(Nc3cccc(S(N)(=O)=O)c3)n2)s1` [Compound 19, 3-[4-(4-Methyl-2-methylamino-thiazol-5-yl)-pyrimidin-2-ylamino]-benzenesulfonamide], for which the figures for the IC50 in data set [1] and in data set [2] were 580 nM and 1200 nM, respectively.

For orientation: remaining activity means the signal under treatment as a percentage of the control signal. Take `CCNc1nc(C)c(-c2ccnc(Nc3ccc(N4CCNCC4)cc3)n2)s1` [Compound 59, [4-(2-Ethylamino-4-methyl-thiazol-5-yl)-pyrimidin-2-yl]-(4-piperazin-1-yl-phenyl)-amine]: the remaining activity at 5 µM was 4% at ERK8; 25% on MKK1; 87% on MAPKAP-K3; 30% on CAMK-1; 17% on MAPKAP-K1b; 45% on MSK1. Besides, the remaining activity at 5 µM on CSK came to 14%; at PKCa, 33%; on CDK2-cyclin A, 1%; on NEK2a, 9%; at SAPK3/p38g, 69%; at MNK1, 3%. For the same compound, the remaining activity at 5 µM at SAPK2b/p38β2 was found to be 36%; on JNK3 it was 13%; on SGK, 0%; at NEK6, 47%; on CHK1, 10%; at PDK1, 20%. Moreover, the remaining activity at 5 µM at p70 S6K stood at 13%. In the data set on PHK, the “Remaining activity (%) PHK” value is on record as 3%. Also, the “Remaining activity (%) CK2” value in the data set on CK2 was found to be 2%. In addition, the IC50 in [1] is 3300 nM. Also, the “Remaining activity (%) CK1” value with CK1 stood at 3%.

With `Cc1nc(CS(=O)(=O)c2cccs2)sc1-c1ccnc(Nc2ccc(N3CCOCC3)cc2)n1` [Compound 138, {4-[4-Methyl-2-(thiophene-2-sulfonylmethyl)-thiazol-5-yl]-pyrimidin-2-yl}-(4-morpholin-4-yl-phenyl)-amine], the remaining activity at 5 µM is 11% at ERK8; 21% on MKK1; 104% at MAPKAP-K3; 91% on CAMK-1; 48% on MAPKAP-K1b; 69% at MSK1. Further, the remaining activity at 5 µM on CSK is 30%; on PKCa, 41%; at CDK2-cyclin A, 9%; at NEK2a, 6%; at SAPK3/p38g, 74%; at MNK1 it was 18%. In addition, the remaining activity at 5 µM came out at 42% at SAPK2b/p38β2; 15% at JNK3; 5% at SGK; 80% at NEK6; 55% on CHK1; 55% on PDK1. Also, the remaining activity at 5 µM on p70 S6K was 41%. Besides, in the data set on PHK, the “Remaining activity (%) PHK” value is 15%. In the data set with CK2, the “Remaining activity (%) CK2” value is 5%. Moreover, the “Remaining activity (%) CK1” value in the data set with CK1 is 27%.

Broadly, the melting point is the temperature, or range, at which the solid turns liquid. For the compound `COCCNS(=O)(=O)c1cccc(Nc2nccc(-c3sc(N)nc3C)n2)c1` [Compound 55, 3-[4-(2-Amino-4-methyl-thiazol-5-yl)-pyrimidin-2-ylamino]-N-(2-methoxy-ethyl)-benzenesulfonamide], the melting point lay in the range of 179 to 180 °C.

The values above are taken from patent US20090137572A1, “2-substituted-4-heteroaryl-pyrimidines useful for the treatment of proliferative disorders” (priority 2004, published 2009).
